Broadly, the IC50 is the concentration that gives 50% inhibition.

For 18 compounds, IC50 results are on record in patent US9695194B2, “Benzoxazinone derivatives for treatment of skin diseases” (SIXERA PHARMA AB, priority 2014, dated 2017).

Structures are written as SMILES. A value given as a limit tells only on which side of the number the result lay.

One assay has as its target Trypsin (Bos taurus (Bovine), UniProt P00760). Briefly: Trypsin assay. The format is biochemical, human. As to conditions: substrate S-2288, 37° C., pH 7.2.
Another assay has as its target Recombinant human KLK7 (Homo sapiens (Human), UniProt P49862). Briefly: KLK7 assay. The format is biochemical. As to conditions: substrate S-2586, 37° C., pH 7.2.
In the next assay the target is Recombinant human KLK5 (Homo sapiens (Human), UniProt Q9Y337). Briefly: KLK5 assay.
Sequence of Recombinant human KLK5 (Q9Y337 23-293): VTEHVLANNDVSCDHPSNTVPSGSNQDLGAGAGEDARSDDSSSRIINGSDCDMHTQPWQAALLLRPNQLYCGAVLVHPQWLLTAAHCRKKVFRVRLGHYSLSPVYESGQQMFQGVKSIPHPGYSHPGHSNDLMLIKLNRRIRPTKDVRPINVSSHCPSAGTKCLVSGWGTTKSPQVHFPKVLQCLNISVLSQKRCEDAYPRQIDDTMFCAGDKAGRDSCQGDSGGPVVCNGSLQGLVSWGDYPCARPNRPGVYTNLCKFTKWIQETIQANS
A further assay concerns the target Chymotrypsin, bovine (Bos taurus (Bovine), UniProt P00766). Briefly: Chymotrypsin assay. The format is biochemical. As to conditions: substrate S-2586, 37° C., pH 7.2. Here is the method: Materials: Chymotrypsin, bovine, 25 μg (Roche, sequence grade), Substrate S-2586 (Chromogenics, cat. no. 82 08 94)
For the next assay, the target named is Cathepsin G (Homo sapiens (Human), UniProt P08311). The experiment in a line: Cathepsin G assay.
Sequence of Cathepsin G (P08311 21-255): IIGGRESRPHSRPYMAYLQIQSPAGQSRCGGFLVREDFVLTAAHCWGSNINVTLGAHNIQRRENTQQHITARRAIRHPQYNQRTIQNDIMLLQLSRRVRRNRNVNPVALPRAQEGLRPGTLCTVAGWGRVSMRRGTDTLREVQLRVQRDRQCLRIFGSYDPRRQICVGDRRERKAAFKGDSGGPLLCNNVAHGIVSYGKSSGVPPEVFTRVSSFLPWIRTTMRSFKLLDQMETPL

Sequence of Trypsin (P00760 24-246): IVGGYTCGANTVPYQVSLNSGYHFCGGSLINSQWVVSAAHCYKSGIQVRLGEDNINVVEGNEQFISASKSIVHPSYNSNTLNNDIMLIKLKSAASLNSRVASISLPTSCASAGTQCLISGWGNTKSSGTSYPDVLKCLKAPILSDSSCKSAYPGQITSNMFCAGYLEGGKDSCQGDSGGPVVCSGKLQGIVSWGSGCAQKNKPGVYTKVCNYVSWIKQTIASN
Sequence of Recombinant human KLK7 (P49862 30-253): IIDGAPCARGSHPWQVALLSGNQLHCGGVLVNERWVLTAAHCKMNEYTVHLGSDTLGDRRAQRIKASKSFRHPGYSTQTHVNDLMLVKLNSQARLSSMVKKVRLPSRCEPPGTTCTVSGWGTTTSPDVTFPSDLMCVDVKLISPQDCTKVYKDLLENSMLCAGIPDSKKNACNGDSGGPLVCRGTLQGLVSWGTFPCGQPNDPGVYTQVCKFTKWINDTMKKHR
Method for Cathepsin G: (§1) IC50 values for a number of substituted 3,1-benzoxazin-4-ones on a panel of human proteases were determined.
Method for Recombinant human KLK5: as §1

On to `COc1ccc(-c2nc3cc(OC)c(OC)cc3c(=O)o2)c(OC)c1` [Compound 17], for which the IC50 at Trypsin was greater than 10000 nM; on Recombinant human KLK7, 175 nM; on Recombinant human KLK5, 1000 nM; against Chymotrypsin, bovine, 1200 nM; against Cathepsin G it was 100 nM.
As for `CCOc1cc2c(=O)oc(-c3ccccc3SC)nc2cc1OC` [Compound 1, 6-ethoxy-7-methoxy-2-(2-methylsulfanylphenyl)-3,1-benzoxazin-4-one], the IC50 against Trypsin is greater than 10000 nM; on Recombinant human KLK7 it was 48 nM; at Chymotrypsin, bovine it was greater than 10000 nM; against Cathepsin G it was greater than 10000 nM.
`O=c1oc(-c2ccccc2Cl)nc2cc3c(cc12)OCCCO3` [Compound 7]: the IC50 against Trypsin is greater than 10000 nM; at Recombinant human KLK7, 90 nM; at Chymotrypsin, bovine it was less than 100 nM; against Cathepsin G, 1900 nM.
For `CC(C)c1ccc(-c2nc3cc4c(cc3c(=O)o2)OCCCO4)c(C(C)C)c1` [Compound 11] the same measures were greater than 10000 nM, 1370 nM, 1000 nM and greater than 10000 nM.
For the compound `CS(=O)(=O)c1ccccc1-c1nc2cc3c(cc2c(=O)o1)OCCO3` [Compound 14], the IC50 against Trypsin was 1800 nM; on Recombinant human KLK7 it was 183 nM; on Recombinant human KLK5, 600 nM; against Chymotrypsin, bovine, less than 100 nM.
`O=c1oc(-c2ccccc2Cl)nc2cc3c(cc12)OCCO3` [Compound 16]: the IC50 against Trypsin was 3700 nM; on Recombinant human KLK7, 149 nM; on Chymotrypsin, bovine, less than 100 nM.
Consider `CS(=O)(=O)c1ccccc1-c1nc2cc3c(cc2c(=O)o1)OCCCO3` [Compound 10], for which the IC50 is greater than 10000 nM at Trypsin; 188 nM at Recombinant human KLK7; 200 nM against Chymotrypsin, bovine.
Regarding `COc1cc2nc(-c3ccccc3I)oc(=O)c2cc1OC` [Compound 18], the IC50 against Trypsin was greater than 10000 nM; at Chymotrypsin, bovine, greater than 10000 nM; on Cathepsin G, 1900 nM.
For the compound `COc1ccccc1-c1nc2cc3c(cc2c(=O)o1)OCCO3` [Compound 13], the IC50 at Trypsin is 1800 nM; at Recombinant human KLK7 it was 155 nM; against Chymotrypsin, bovine, less than 100 nM.
Regarding `COc1cc2nc(-c3ccccc3SC)oc(=O)c2cc1OC` [Compound 12], the IC50 is greater than 10000 nM against Trypsin and 147 nM at Recombinant human KLK7.
Consider `CCOc1cc2c(=O)oc(-c3ccccc3OC)nc2cc1OC` [Compound 5], for which the IC50 at Trypsin is greater than 10000 nM; on Recombinant human KLK7 it was 85 nM; against Chymotrypsin, bovine, greater than 10000 nM; on Cathepsin G, 1200 nM.
Turning to `CCOc1cc2c(=O)oc(-c3ccccc3Cl)nc2cc1OC` [Compound 2, 2-(2-chlorophenyl)-6-ethoxy-7-methoxy-3,1-benzoxazin-4-one], the IC50 against Trypsin was greater than 10000 nM; on Recombinant human KLK7, 73 nM; against Chymotrypsin, bovine it was greater than 10000 nM; at Cathepsin G, greater than 10000 nM.
With `COC1=CC=C(c2nc3cc4c(cc3c(=O)o2)OCCO4)C(OC)C1` (stereo not drawn) [Compound 15], the IC50 at Trypsin was 3700 nM; at Recombinant human KLK7, 105 nM; on Chymotrypsin, bovine it was less than 100 nM.
Turning to `CCOc1cc2c(=O)oc(-c3ccc(OC)cc3OC)nc2cc1OC` [Compound 3], the IC50 is greater than 10000 nM at Trypsin; 116 nM on Recombinant human KLK7; greater than 10000 nM on Chymotrypsin, bovine; 1100 nM at Cathepsin G.
On to `COc1ccc(-c2nc3cc4c(cc3c(=O)o2)OCCCO4)c(OC)c1` [Compound 8], for which the IC50 at Trypsin is greater than 10000 nM; on Recombinant human KLK7, 65 nM; against Chymotrypsin, bovine, less than 100 nM.
As to `CCOc1cc2c(=O)oc(-c3ccccc3S(C)(=O)=O)nc2cc1OC` [Compound 4], the IC50 on Trypsin was greater than 10000 nM; at Recombinant human KLK7, 230 nM; at Chymotrypsin, bovine, greater than 10000 nM; at Cathepsin G, 2800 nM.
Regarding `COc1ccccc1-c1nc2cc3c(cc2c(=O)o1)OCCCO3` [Compound 6], the IC50 is greater than 10000 nM against Trypsin; 80 nM on Recombinant human KLK7; less than 100 nM against Chymotrypsin, bovine.
Regarding `CSc1ccccc1-c1nc2cc3c(cc2c(=O)o1)OCCCO3` [Compound 9], the IC50 was greater than 10000 nM at Trypsin, 228 nM at Recombinant human KLK7 and 1300 nM against Cathepsin G.
